Test results as given in patent US20250171461A1, “STIMULATOR OF INTERFERON GENES (STING) MODULATORS, AND COMPOSITIONS AND METHODS THEREOF” (Geode Therapeutics Inc., priority 2022, published 2025).

What follows are molecules tested against T1, human HAQ STING isoform (hSTING HAQ) (Homo sapiens, UniProt Q86WV6, G230A/H232R/R293Q/R71H) (assay: IFN-β mRNA level in THP1 cells (qPCR, STING agonist cellular activity)). Conditions: compound at 3.6 μM, 2 hrs, IFNβ expression normalized against GAPDH by the 2^-ΔΔCT method, DMSO = 1.0.
T1 construct: THP1 cells express the naturally occurring human HAQ STING isoform (hSTING HAQ); host or cells: THP1
Format: cell-based
Method in brief: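 THP1 cells were seeded at 9×10^5 per well, incubated overnight, then treated with compound at 3.6 μM final (0.1% DMSO control) for 2 hrs at 37 °C. IFN-β mRNA was measured by SYBR Green qPCR, normalised to GAPDH by the 2^−ΔΔCT method, in triplicate.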

T1 sequence (Q86WV6 whole entry R71H/G230A/H232R/R293Q, canonical isoform): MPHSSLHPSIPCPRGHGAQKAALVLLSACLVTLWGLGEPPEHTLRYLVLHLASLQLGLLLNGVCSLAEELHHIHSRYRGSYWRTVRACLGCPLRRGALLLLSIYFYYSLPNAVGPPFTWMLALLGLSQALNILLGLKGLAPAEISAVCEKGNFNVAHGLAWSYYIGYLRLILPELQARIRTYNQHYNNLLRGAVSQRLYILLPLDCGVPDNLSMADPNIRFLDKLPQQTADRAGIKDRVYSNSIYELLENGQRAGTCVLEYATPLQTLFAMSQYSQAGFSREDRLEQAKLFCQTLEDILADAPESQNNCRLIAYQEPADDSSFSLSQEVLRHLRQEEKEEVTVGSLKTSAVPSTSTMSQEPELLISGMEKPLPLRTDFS

Row | Compound | Relative mRNA INFβ/GAPDH THP 1
1 | Nc1ccc(N2CCC[C@H](N(Cc3ccccc3)Cc3cn4c5c(c(F)c(F)cc5c3=O)OCC4)C2)cn1 [Compound 72, (S)-6-(((1-(6-aminopyridin-3-yl)piperidin-3-yl)(benzyl)amino)methyl)-9,10-difluoro-2,3-dihydro-7H-[1,4]oxazino[2,3,4-ij]quinolin-7-one] | 31.9
2 | COc1ccc(CN(Cc2cn3c4c(c(F)c(F)cc4c2=O)OCC3)[C@H]2CCCN(c3ccc(N)nc3)C2)c(OC)c1 [Compound 73, (S)-6-(((1-(6-aminopyridin-3-yl)piperidin-3-yl)(2,4-dimethoxybenzyl)amino)methyl)-9,10-difluoro-2,3-dihydro-7H-[1,4]oxazino[2,3,4-ij]quinolin-7-one] | 7.9
3 | Nc1ccc(N2CCC[C@H](N(Cc3ccc(C(F)(F)F)cc3F)Cc3cn4c5c(c(F)c(F)cc5c3=O)OCC4)C2)cn1 [Compound 74, (S)-6-(((1-(6-aminopyridin-3-yl)piperidin-3-yl)(2-fluoro-4-(trifluoromethyl)benzyl)amino)methyl)-9,10-difluoro-2,3-dihydro-7H-[1,4]oxazino[2,3,4-ij]quinolin-7-one] | 1.4
4 | Nc1ccc(N2CCC[C@H](N(Cc3ccccn3)Cc3cn4c5c(c(F)c(F)cc5c3=O)OCC4)C2)cn1 [Compound 75, (S)-6-(((1-(6-aminopyridin-3-yl)piperidin-3-yl)(pyridin-2-ylmethyl)amino)methyl)-9,10-difluoro-2,3-dihydro-7H-[1,4]oxazino[2,3,4-ij]quinolin-7-one] | 1.1
5 | Nc1ccc(N2CCC[C@H](N(Cc3ccc(Cl)nc3)Cc3cn4c5c(c(F)c(F)cc5c3=O)OCC4)C2)cn1 [Compound 76, (S)-6-(((1-(6-aminopyridin-3-yl)piperidin-3-yl)((6-chloropyridin-3-yl)methyl)amino)methyl)-9,10-difluoro-2,3-dihydro-7H-[1,4]oxazino[2,3,4-ij]quinolin-7-one] | 0.8
6 | Nc1ccc(N2CCC[C@H](N(Cc3ccccc3F)Cc3cn4c5c(c(F)c(F)cc5c3=O)OCC4)C2)cn1 [Compound 77, (S)-6-(((1-(6-aminopyridin-3-yl)piperidin-3-yl)(2-fluorobenzyl)amino)methyl)-9,10-difluoro-2,3-dihydro-7H-[1,4]oxazino[2,3,4-ij]quinolin-7-one] | 1.3
7 | Cc1cc(CN(Cc2cn3c4c(c(F)c(F)cc4c2=O)OCC3)[C@H]2CCCN(c3ccc(N)nc3)C2)cc(C)c1F [Compound 78, (S)-6-(((1-(6-aminopyridin-3-yl)piperidin-3-yl)(4-fluoro-3,5-dimethylbenzyl)amino)methyl)-9,10-difluoro-2,3-dihydro-7H-[1,4]oxazino[2,3,4-ij]quinolin-7-one] | 1.2
8 | Nc1ccc(N2CCC[C@H](N(Cc3ccncc3Cl)Cc3cn4c5c(c(F)c(F)cc5c3=O)OCC4)C2)cn1 [Compound 79, (S)-6-(((1-(6-aminopyridin-3-yl)piperidin-3-yl)((3-chloropyridin-4-yl)methyl)amino)methyl)-9,10-difluoro-2,3-dihydro-7H-[1,4]oxazino[2,3,4-ij]quinolin-7-one] | 335.5
9 | COc1cc(CN(Cc2cn3c4c(c(F)c(F)cc4c2=O)OCC3)[C@H]2CCCN(c3ccc(C)nc3)C2)ccn1 [Compound 80, (S)-9,10-difluoro-6-((((2-methoxypyridin-4-yl)methyl)(1-(6-methylpyridin-3-yl)piperidin-3-yl)amino)methyl)-2,3-dihydro-7H-[1,4]oxazino[2,3,4-ij]quinolin-7-one] | 6820.3
10 | Cc1cc(CN(Cc2cn3c4c(c(F)c(F)cc4c2=O)OCC3)[C@H]2CCCN(c3cccnc3)C2)ccn1 [Compound 81, (S)-9,10-difluoro-6-((((2-methylpyridin-4-yl)methyl)(1-(pyridin-3-yl)piperidin-3-yl)amino)methyl)-2,3-dihydro-7H-[1,4]oxazino[2,3,4-ij]quinolin-7-one] | 5719.5
11 | Cc1cc(CN(Cc2cn3c4c(c(F)c(F)cc4c2=O)OCC3)[C@H]2CCCN(c3cnccn3)C2)ccn1 [Compound 83, (S)-9,10-difluoro-6-((((2-methylpyridin-4-yl)methyl)(1-(pyrazin-2-yl)piperidin-3-yl)amino)methyl)-2,3-dihydro-7H-[1,4]oxazino[2,3,4-ij]quinolin-7-one] | 1.2
12 | COc1cc(CN(Cc2cn3c4c(c(F)c(F)cc4c2=O)OCC3)[C@H]2CCCN(c3cnccn3)C2)ccn1 [Compound 84, (S)-9,10-difluoro-6-((((2-methoxypyridin-4-yl)methyl)(1-(pyrazin-2-yl)piperidin-3-yl)amino)methyl)-2,3-dihydro-7H-[1,4]oxazino[2,3,4-ij]quinolin-7-one] | 0.9

Continued, values first:

Row | Relative mRNA INFβ/GAPDH THP 1 | Compound
13 | 0.9 | O=c1c(CN(Cc2ccncn2)[C@H]2CCCN(c3cnccn3)C2)cn2c3c(c(F)c(F)cc13)OCC2 [Compound 85, (S)-9,10-difluoro-6-(((1-(pyrazin-2-yl)piperidin-3-yl)(pyrimidin-4-ylmethyl)amino)methyl)-2,3-dihydro-7H-[1,4]oxazino[2,3,4-ij]quinolin-7-one]
14 | 1.1 | COc1cnccc1CN(Cc1cn2c3c(c(F)c(F)cc3c1=O)OCC2)[C@H]1CCCN(c2cnccn2)C1 [Compound 86, (S)-9,10-difluoro-6-((((3-methoxypyridin-4-yl)methyl)(1-(pyrazin-2-yl)piperidin-3-yl)amino)methyl)-2,3-dihydro-7H-[1,4]oxazino[2,3,4-ij]quinolin-7-one]
15 | 1.2 | O=c1c(CN(Cc2ccncc2F)[C@H]2CCCN(c3cnccn3)C2)cn2c3c(c(F)c(F)cc13)OCC2 [Compound 87, (S)-9,10-difluoro-6-((((3-fluoropyridin-4-yl)methyl)(1-(pyrazin-2-yl)piperidin-3-yl)amino)methyl)-2,3-dihydro-7H-[1,4]oxazino[2,3,4-ij]quinolin-7-one]
16 | 0.8 | COC(=O)c1cc(CN(Cc2cn3c4c(c(F)c(F)cc4c2=O)OCC3)[C@H]2CCCN(c3cnccn3)C2)ccn1 [Compound 88, methyl (S)-4-((((9,10-difluoro-7-oxo-2,3-dihydro-7H-[1,4]oxazino[2,3,4-ij]quinolin-6-yl)methyl)(1-(pyrazin-2-yl)piperidin-3-yl)amino)methyl)picolinate]
17 | 1.3 | N#Cc1cc(CN(Cc2cn3c4c(c(F)c(F)cc4c2=O)OCC3)[C@H]2CCCN(c3cnccn3)C2)ccn1 [Compound 89, (S)-4-((((9,10-difluoro-7-oxo-2,3-dihydro-7H-[1,4]oxazino[2,3,4-ij]quinolin-6-yl)methyl)(1-(pyrazin-2-yl)piperidin-3-yl)amino)methyl)picolinonitrile]
18 | 1.7 | CCOc1cc(CN(Cc2cn3c4c(c(F)c(F)cc4c2=O)OCC3)[C@H]2CCCN(c3cnccn3)C2)ccn1 [Compound 90, (S)-6-((((2-ethoxypyridin-4-yl)methyl)(1-(pyrazin-2-yl)piperidin-3-yl)amino)methyl)-9,10-difluoro-2,3-dihydro-7H-[1,4]oxazino[2,3,4-ij]quinolin-7-one]
19 | 1.0 | CNC(=O)c1cc(CN(Cc2cn3c4c(c(F)c(F)cc4c2=O)OCC3)[C@H]2CCCN(c3cnccn3)C2)ccn1 [Compound 91, (S)-4-((((9,10-difluoro-7-oxo-2,3-dihydro-7H-[1,4]oxazino[2,3,4-ij]quinolin-6-yl)methyl)(1-(pyrazin-2-yl)piperidin-3-yl)amino)methyl)-N-methylpicolinamide]
20 | 1.1 | NC(=O)c1cc(CN(Cc2cn3c4c(c(F)c(F)cc4c2=O)OCC3)[C@H]2CCCN(c3cnccn3)C2)ccn1 [Compound 92, (S)-4-((((9,10-difluoro-7-oxo-2,3-dihydro-7H-[1,4]oxazino[2,3,4-ij]quinolin-6-yl)methyl)(1-(pyrazin-2-yl)piperidin-3-yl)amino)methyl)picolinamide]
21 | 411.3 | CCN1CCN(c2c(F)cc3c(=O)c(CN(Cc4ccnc(OC)c4)[C@H]4CCCN(c5ccc(N)nc5)C4)cn4c3c2OCC4)CC1 [Compound 93, (S)-6-(((1-(6-aminopyridin-3-yl)piperidin-3-yl)((2-methoxypyridin-4-yl)methyl)amino)methyl)-10-(4-ethylpiperazin-1-yl)-9-fluoro-2,3-dihydro-7H-[1,4]oxazino[2,3,4-ij]quinolin-7-one]
22 | 248.8 | COc1cc(CN(Cc2cn3c4c(c(N5CCN(C)CC5)c(F)cc4c2=O)OCC3)[C@H]2CCCN(c3ccc(N)nc3)C2)ccn1 [Compound 94, (S)-6-(((1-(6-aminopyridin-3-yl)piperidin-3-yl)((2-methoxypyridin-4-yl)methyl)amino)methyl)-9-fluoro-10-(4-methylpiperazin-1-yl)-2,3-dihydro-7H-[1,4]oxazino[2,3,4-ij]quinolin-7-one]
23 | 1.2 | Cc1cncc(CN(Cc2cn3c4c(c(N5CCN(C)CC5)c(F)cc4c2=O)OCC3)[C@@H]2CCCN(c3cnccn3)C2)c1 [Compound 95, (R)-9-fluoro-10-(4-methylpiperazin-1-yl)-6-((((5-methylpyridin-3-yl)methyl)(1-(pyrazin-2-yl)piperidin-3-yl)amino)methyl)-2,3-dihydro-7H-[1,4]oxazino[2,3,4-ij]quinolin-7-one]
24 | 451.1 | COc1cc(CN(Cc2cn3c4c(c(N5CCN(C)CC5)c(F)cc4c2=O)OCC3C(C)C)[C@H]2CCCN(c3ccc(N)nc3)C2)ccn1 (stereo partly drawn) [Compound 96, 6-((((S)-1-(6-aminopyridin-3-yl)piperidin-3-yl)((2-methoxypyridin-4-yl)methyl)amino)methyl)-9-fluoro-3-isopropyl-10-(4-methylpiperazin-1-yl)-2,3-dihydro-7H-[1,4]oxazino[2,3,4-ij]quinolin-7-one]
